Test results: paper PMC9421656, “Beyond Retigabine: Design, Synthesis, and Pharmacological Characterization of a Potent and Chemically Stable Neuronal Kv7 Channel Activator with Anticonvulsant Activity” (Journal of Medicinal Chemistry, 2022)
Entries after “also recorded” stand apart in the source; their conditions may differ.

Assays:
Kv7.2/Kv7.3 channels [1] = biological target: T1, Kv7.2/Kv7.3 channels (Homo sapiens, UniProt O43525+O43526); set-up: expressed in transfected cells; details: cited from earlier work
PTZ-induced seizures = assay: Pentylenetetrazol (PTZ)-induced acute seizures in mice; format: in vivo, C57Bl/6 mice; details: XE991 alone, 3 mg/kg i.p.
Procedure: A subcutaneous (s.c.) injection of 100 mg/kg PTZ in mice is able to trigger convulsive behavior whose intensity can be assessed and quantified according to the revised Lüttjohann’s scale (see Materials and Methods),[40] using a 9-point severity score ranging from 0 (whisker trembling) to 8 (wild jumping). For each animal, the maximal severity score (Figure 5A) and the time latency required to reach such values (Figure 5B) were recorded.
Food and water were available ad libitum. Animals were experimentally naive and were used only once.
Thus, each dose was dissolved to allow injection of 0.01 mL/g, i.p. The control group was represented by mice injected only with vehicle solution (saline containing 2% Tween-20 and 2% PEG-400).
PTZ was injected, and animals were placed in clear Plexiglass boxes for observation of seizure activity. The severity of convulsions (from minimal “clonic” to maximal “generalized tonic–clonic”) as well as the latency to onset of maximal seizure was recorded.
0 = whisker trembling, 1 = sudden behavioral arrest, 2 = facial jerking, 3 = neck jerks, 4 = clonic seizures (sitting), 5 = tonic clonic seizures (lying on belly), 6 = clonic seizures (lying on side), 7 = tonic clonic seizures (lying on side), 8 = wild jumping. The behavioral assessments described above were performed in a blind manner and the observers had to reach a unanimous agreement regarding the scoring of the behavior.
The number of animals needed for the experiment was determined using the power analysis software GPower version 3.1.92. The required minimum sample size was 8 mice per group. Statistical analyses were performed using GraphPad Prism (GraphPad Software, LaJolla, CA) using a one-way analysis of variance with the Tukey post-hoc test. The P value of <0.05 was accepted as indicative of a statistically significant difference.

Kv7.2/Kv7.3 channels [2] = biological target: T1, Kv7.2/Kv7.3 channels; assay: FluxOR thallium-sensitive fluorescence-based assay in CHO cells stably expressing Kv7.2 + Kv7.3; format: cell-based; set-up: expressed in transfected cells; details: for Kv7 opening activity (in words) / Slope of the fluorescent signal at 10 μM: 10 μM; for Kv7 opening activity (in words): compared with retigabine or the reference compound of the subseries; for Slope of the fluorescent signal at 10 μM: initial slope of FluxOR signal between 5 and 15 s, mean ± SEM
Procedure: While assay robustness in Kv7.2/Kv7.3-expressing cells was high (Z′ factor > 0.5),[27] the Z′ factor calculated in CHO cells expressing Kv7.2 subunits alone was <0.5; thus, all subsequent pharmacological screens were performed in Kv7.2/Kv7.3-expressing cells. […] The Kv7.2/Kv7.3-stable cell line was generated using a plasmid-based PiggyBac transposon system that enables genomic integration of multiple independent transposons containing distinct cDNA sequences. cDNAs for KCNQ2 and KCNQ3 genes (encoding for Kv7.2 and Kv7.3, respectively) were cloned into two different PiggyBac expression vectors (pB-CMV-MCS-EF1α-RedPuro, System Biosciences), and these two plasmids, together with a plasmid encoding for the transposase (System Biosciences), were transfected into CHO cells using Lipofectamine 2000 (Invitrogen) as indicated in the protocol provided by the seller company.
The selected clone stably expressing Kv7.2/Kv7.3 channels was grown in DMEM supplemented with 10% FBS, 50 U/mL Pen-Strep, 2 mM L-glutamine (all purchased from Gibco), and 4 μg/mL puromycin (Sigma) in a humidified atmosphere at 37 °C with 5% CO2. […] A kinetic dispense microplate reader (FLUOstar Optima) was used to read the plate, setting the excitation filter at 485 nm and the emission filter at 520 nm; “Stimulus buffer” prepared as indicated in the protocol was automatically added to wells after 5 s of recording; the plate was read every 1 s, for 50 s. The results were analyzed using Optima Data Analysis and Microsoft Excel.
Only experiments resulting in a Z′ > 0.5 were considered. Data shown (Figures 1D,E,F,G and 3B) were obtained from at least three independent experiments.
Data were analyzed using the GraphPad Prism 8.0.2 (GraphPad Software, LaJolla, CA). Statistically significant differences in the initial slope of the curves were evaluated through ordinary one-way ANOVA, and multiple comparisons were corrected with the Tukey test. […] Indicated EC50 values are the mean of at least three independent experiments ± standard error of the mean (SEM).

[3] = Photostability under UV-visible light with HPLC analysis (degradation, dimer formation); format: physicochemical; details: for % Degradation (3h, UV): 10 μM, buffered aqueous solution pH 7.4, 3 h UV-visible light, ± SD; for Dimers Formation / Photodegradation (in words): 3 h UV-visible light; for Dimers Formation: HPLC at 550 nm; for Photodegradation (in words): compared with retigabine
Text: Two different HPLC wavelengths were utilized: (a) […] to evaluate the decreased concentration of the starting molecule; (b) 550 nm to investigate the formation of phenazine/phenazinium dimers, as previously described.[10] Unfortunately, dimer formation was detected for all tested compounds, except for 23 and 24. […]. […]. The first group consisted of N4 (−X- in Table 2) substituted analogues, in which the tertiary amine is unavailable for the formation of phenazine dimers (compounds 25–28). […]. The third group included derivatives replacing hydrogen atoms with electron-withdrawing fluorine atoms at position R2 of the benzene-1,2,4-triamine core scaffold (compounds 59, 60), a strategy likely reducing the reactivity of N2 and N4. […].
Photostability experiments were performed by dissolving compounds in DMSO and then diluting in buffered aqueous solutions at pH 7.4 to a final concentration of 10 μM. 1 cm quartz cells, filled with the abovementioned solutions, were irradiated by a UV lamp (UV Consulting TQ 150 equipped with Duran 50 sleeve and 150 W power supply unit, Peschl, Germany) at a fixed distance of 20 cm from the UV source. Control samples were maintained at 37 °C, wrapped with aluminum foil to avoid light exposure, and used to assess chemical stability of the compounds. At predetermined intervals, aliquots were withdrawn and analyzed by UHPLC in order to assess the concentration decrease of the starting materials and the presence of the dimers usually formed by retigabine.
Photostability and chemical stability experiments were carried out on a Kinetex^TM C18 150 × 2.1 mm × 2.6 μm (100 Å) column (Phenomenex, Bologna, Italy). The optimal mobile phase consisted of 0.1% TFA/H2O v/v (A) and 0.1% TFA/ACN v/v (B). Analysis was performed in gradient elution as follows: 0–13.0 min, 5–65% B; 13–14.0 min, 65–95% B; 14–15.0 min, isocratic to 95% B; 15–15.01 min, 95–5% B; then 3 min for column re-equilibration. The flow rate was 0.5 mL min^–1. The column oven temperature was set to 45 °C. The injection volume was 7 μL of sample. The following PDA parameters were applied: sampling rate, 12.5 Hz; detector time constant, 0.160 s; cell temperature, 40 °C. Data acquisition was set in the range 190–800 nm, and chromatograms were monitored at 224 nm to assess the decrease in concentration of the starting material, while a wavelength of 550 nm was used to eventually detect dimerization.

[4] = In vitro metabolism assay (S9 fraction of human liver microsomes); format: in vitro ADME; details: human
Procedure: To further explore the metabolic stability of compounds 25, 26, and 60 in a biologically relevant model, they were tested in an in vitro metabolism assay (S9 fraction of human liver microsomes) using retigabine as a comparator.[33],[34] In this assay, a very small extent (4.7 ± 0.5%) of retigabine undergoes phase I metabolism, whereas a larger fraction (17.4 ± 1.2%) was metabolized in phase II reactions, as previously reported.[35]

| SMILES | Potency relative to retigabine in activating Kv7.2/Kv7.3 channels in vitro (Kv7.2/Kv7.3 channels [1]) | Effect on seizure severity score or latency (PTZ-induced seizures) | Effect on retigabine-induced increase of maximal fluorescence and initial slope (Kv7.2/Kv7.3 channels [2]; 10 μM XE991 with retigabine) | % Degradation (3h, UV) [3] [%] | Dimers Formation [3] | Photodegradation (in words) [3] | Phase I turnover metabolism [4] [%] | Phase II turnover metabolism [4] [%] | Kv7 opening activity (in words) (Kv7.2/Kv7.3 channels [2]) | Slope of the fluorescent signal at 10 μM (Kv7.2/Kv7.3 channels [2]) |
| --- | --- | --- | --- | --- | --- | --- | --- | --- | --- | --- |
| CCOC(=O)Nc1ccc(NCc2ccc(F)cc2)c(F)c1N [SF0034] | five times more potent than retigabine | – | – | – | – | – | – | – | – | – |
| O=C1c2ccccc2C(Cc2ccncc2)(Cc2ccncc2)c2ccccc21 [XE991, reference compound] | – | did not affect | abolished | – | – | – | – | – | – | – |
| CCCCCCC(=O)Nc1ccc(N(C)Cc2ccc(C(F)(F)F)cc2)cc1N [compound 25, N-(2-Amino-4-(methyl(4-(trifluoromethyl)benzyl)amino)phenyl)heptanamide] | – | – | – | 63.3±2.8 | did not form dimers and No | underwent extensive photodegradation | 20.6 ± 1.4 | 33.2 ± 1.0 | improved agonist activity; also recorded: higher than that of retigabine | 0.0637±0.0033 |
| CN(Cc1ccc(C(F)(F)F)cc1)c1ccc(NC(=O)CC(C)(C)C)c(N)c1 [compound 26, N-(2-Amino-4-(methyl(4-(trifluoromethyl)benzyl)amino)phenyl)-3,3-dimethylbutanamide] | – | – | – | 99.5±0.1 | did not form dimers and No | underwent extensive photodegradation | 32.1 ± 1.2 | 32.7 ± 0.3 | improved agonist activity; also recorded: higher than that of retigabine | 0.0721±0.0034 |
| CCCCCCC(=O)Nc1ccc(NCc2ccccc2)cc1N [compound 41, N-(2-Amino-4-(benzylamino)phenyl)heptanamide] | – | – | – | 19.5±4.7 | Yes | – | – | – | no change in activity | 0.0476±0.0030 |
| CC(C)(C)CC(=O)Nc1ccc(NCc2c(F)cccc2F)cc1N [compound 43, N-(2-Amino-4-((2,6-difluorobenzyl)amino)phenyl)-3,3-dimethylbutanamide] | – | – | – | 98.4±0.2 | Yes | – | – | – | still displayed strong activity | 0.0534±0.0028 |
| CCCCCCC(=O)Nc1ccc(NCc2ccccc2F)cc1N [compound 52, N-(2-Amino-4-((2-fluorobenzyl)amino)phenyl)heptanamide] | – | – | – | 74.9± 0.1 | Yes | – | – | – | no change in activity | 0.0448±0.0035 |
